Assay results as given in US9707200B2, “Metabolism-improving agent comprising rare fatty acid” (KYOTO UNIVERSITY, priority 2012, dated 2017).

What was measured:
PPARγ = target: T1, PPARγ (Homo sapiens, UniProt P37231); experiment: PPARγ ligand activity, GAL4-PPARγ reporter luciferase assay in CV-1 cells; type: cell-based; settings: 24 hr incubation, KetoA and HYA each at 30 μM, other fatty acids by a similar method
T1 construct: expressed in transfected cells; host or cells: CV-1 (African green monkey kidney)
T1 sequence (P37231 238-503 limits assumed): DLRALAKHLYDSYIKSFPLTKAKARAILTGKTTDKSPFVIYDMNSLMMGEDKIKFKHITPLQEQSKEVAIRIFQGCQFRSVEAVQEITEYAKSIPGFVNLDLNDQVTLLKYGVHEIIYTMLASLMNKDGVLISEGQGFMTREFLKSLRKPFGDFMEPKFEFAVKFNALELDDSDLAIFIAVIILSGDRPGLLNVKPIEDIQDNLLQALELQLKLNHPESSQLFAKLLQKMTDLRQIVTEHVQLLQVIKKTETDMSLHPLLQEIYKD
Experimental: (§1) To evaluate the function of oxo fatty acid and the like, PPARα, γ-activating action was measured first. The measurement was performed in reference to Nobuyuki Takahashi et al., FEES Letters 514 (2002) p. 315-322, “Dual action of isoprenols from herbal medicines on both PPARgamma and PPARalpha in 3T3-L1 adipocytes and HepG2 hepatocytes.”, the section of Materials and Methods “Reporter plasmids and luciferase assays”. To be specific, a plasmid containing DNA encoding a fused protein of PPARα, γ ligand binding region and GAL4 DNA binding region (pM-hPPARα or pM-hPPARγ), a reporter plasmid containing GAL4 binding DNA sequence linked to luciferase (p4xUASg-tk-luc), and internal control (pRL-CMV) to standardize transfection efficiency were introduced into CV-1 cell derived from the kidney of African green monkey. The ligand described below was added to the cells and, after incubation for 24 hr, luciferase activity was measured. As a ligand, KetoA and HYA were each added at 30 μM.
(§2) The concentration of the sample was adjusted with ethanol. Ethanol was used as a negative control, […], and GW7647 (10 nM) and Troglitazone (5 μM) were used as […].

PPARα = target: T2, PPARα (Homo sapiens, UniProt Q07869); experiment: PPARα ligand activity, GAL4-PPARα reporter luciferase assay in CV-1 cells; type: cell-based; settings: 24 hr incubation, KetoA and HYA each at 30 μM, other fatty acids by a similar method
T2 construct: expressed in transfected cells; host or cells: CV-1 (African green monkey kidney)
T2 sequence (Q07869 239-466 limits assumed): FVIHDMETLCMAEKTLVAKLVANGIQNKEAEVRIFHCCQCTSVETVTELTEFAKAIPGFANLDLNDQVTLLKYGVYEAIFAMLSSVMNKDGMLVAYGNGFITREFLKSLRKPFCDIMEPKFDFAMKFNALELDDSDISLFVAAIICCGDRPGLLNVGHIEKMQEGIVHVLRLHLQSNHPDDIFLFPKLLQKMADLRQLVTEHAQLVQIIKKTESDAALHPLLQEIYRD
Experimental: as §1, §2

PPARγ agonist activity (relative luciferase activity) (PPARγ)	PPARα agonist activity (relative luciferase activity) (PPARα)	SMILES
some PPARγ agonist activity	PPARα agonist activity	CCCCC/C=C\CC(O)CCCCCCCCC(=O)O (stereo not drawn) [HYA, 10-hydroxy-cis-12-octadecenoic acid]
strong PPARα and γ agonist activity	strong PPARα and γ agonist activity	CCCCC/C=C\CC(=O)CCCCCCCCC(=O)O [KetoA, 10-oxo-cis-12-octadecenoic acid]
